Measurements taken from US11820766B2, “Monoacylglycerol lipase modulators” (Janssen Pharmaceutica NV, priority 2018, dated 2023).

These molecules were tested against T1, human MGL from HeLa cells (Homo sapiens, UniProt Q99685) (assay: In vitro MGL activity assay: [glycerol-1,3-3H]-oleyl glycerol cleavage by MGL from HeLa cells). Conditions: 300 nM [Glycerol-1,3-3H]-oleyl glycerol, one hour incubation.
T1 construct: combining endogenously expressed MGL from HeLa cells with test compounds; endogenous in cells; host or cells: HeLa cells / cell homogenates
T1 sequence (Q99685 1-303): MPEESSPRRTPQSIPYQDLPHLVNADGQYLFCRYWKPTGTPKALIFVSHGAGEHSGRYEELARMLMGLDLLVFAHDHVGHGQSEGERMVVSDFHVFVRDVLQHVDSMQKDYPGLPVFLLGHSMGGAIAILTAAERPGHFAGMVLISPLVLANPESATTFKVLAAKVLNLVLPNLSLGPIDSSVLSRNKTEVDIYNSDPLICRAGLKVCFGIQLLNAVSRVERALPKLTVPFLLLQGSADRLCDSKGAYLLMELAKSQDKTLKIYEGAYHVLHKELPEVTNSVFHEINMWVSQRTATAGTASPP
Assay type: biochemical
Description: MGL is the predominant hydrolase in HeLa cells/cell homogenates.

IC50	Compound
63 nM	Cc1cc(C(=O)N2CCc3c(nn(C)c3-c3cc(F)c(F)c(F)c3)[C@@H]2C)cc(-n2cnnc2)c1 [Example 293, [(7S)-2,7-Dimethyl-3-(3,4,5-trifluorophenyl)-5,7-dihydro-4H-pyrazolo[3,4-c]pyridin-6-yl]-[3-methyl-5-(1,2,4-triazol-4-yl)phenyl]methanone]
1660 nM	Cc1ccc(C(=O)N2CCc3c(nn(C)c3-c3cc(F)c(F)c(F)c3)[C@@H]2C)cc1-n1cnnc1 [Example 294, [(7S)-2,7-Dimethyl-3-(3,4,5-trifluorophenyl)-5,7-dihydro-4H-pyrazolo[3,4-c]pyridin-6-yl]-[4-methyl-3-(1,2,4-triazol-4-yl)phenyl]methanone]
608 nM	C[C@H]1c2nn(C)c(-c3cc(F)c(F)c(F)c3)c2CCN1C(=O)c1cc(-n2cnnc2)cc(C(F)(F)F)c1 [Example 296, [(7S)-2,7-Dimethyl-3-(3,4,5-trifluorophenyl)-5,7-dihydro-4H-pyrazolo[3,4-c]pyridin-6-yl]-[3-(1,2,4-triazol-4-yl)-5-(trifluoromethyl)phenyl]methanone]
923 nM	COc1ccc(C(=O)N2CCc3c(nn(C)c3-c3cc(F)c(F)c(F)c3)[C@@H]2C)cc1-n1cnnc1 [Example 297, [(7S)-2,7-Dimethyl-3-(3,4,5-trifluorophenyl)-5,7-dihydro-4H-pyrazolo[3,4-c]pyridin-6-yl]-[4-methoxy-3-(1,2,4-triazol-4-yl)phenyl]methanone]
18.7 nM	COc1cc(C(=O)N2CCc3c(nn(C)c3-c3cc(F)c(F)c(F)c3)[C@@H]2C)cc(-n2cnnc2)c1 [Example 298, [(7S)-2,7-Dimethyl-3-(3,4,5-trifluorophenyl)-5,7-dihydro-4H-pyrazolo[3,4-c]pyridin-6-yl]-[3-methoxy-5-(1,2,4-triazol-4-yl)phenyl]methanone]
263 nM	COc1ccc(C(=O)N2CCc3c(nn(C)c3-c3cc(F)c(F)c(F)c3)[C@@H]2C)cn1 [Example 300, [(7S)-2,7-Dimethyl-3-(3,4,5-trifluorophenyl)-5,7-dihydro-4H-pyrazolo[3,4-c]pyridin-6-yl]-(6-methoxy-3-pyridyl)methanone]
248 nM	COc1ccc(C(=O)N2CCc3c(nn(C)c3-c3cc(F)c(F)c(F)c3)[C@@H]2C)nc1 [Example 301, [(7S)-2,7-Dimethyl-3-(3,4,5-trifluorophenyl)-5,7-dihydro-4H-pyrazolo[3,4-c]pyridin-6-yl]-(5-methoxy-2-pyridyl)methanone]
312 nM	COc1ccc(C)c(C(=O)N2CCc3c(nn(C)c3-c3cc(F)c(F)c(F)c3)[C@@H]2C)n1 [Example 302, [(7S)-2,7-Dimethyl-3-(3,4,5-trifluorophenyl)-5,7-dihydro-4H-pyrazolo[3,4-c]pyridin-6-yl]-(6-methoxy-3-methyl-2-pyridyl)methanone]
113 nM	COc1cccnc1C(=O)N1CCc2c(nn(C)c2-c2cc(F)c(F)c(F)c2)[C@@H]1C [Example 303, [(7S)-2,7-Dimethyl-3-(3,4,5-trifluorophenyl)-5,7-dihydro-4H-pyrazolo[3,4-c]pyridin-6-yl]-(3-methoxy-2-pyridyl)methanone]
578 nM	COCc1cncc(C(=O)N2CCc3c(nn(C)c3-c3cc(F)c(F)c(F)c3)[C@@H]2C)c1 [Example 304, [(7S)-2,7-Dimethyl-3-(3,4,5-trifluorophenyl)-5,7-dihydro-4H-pyrazolo[3,4-c]pyridin-6-yl]-[5-(methoxymethyl)-3-pyridyl]methanone]
229 nM	CC(C)Oc1cncc(C(=O)N2CCc3c(nn(C)c3-c3cc(F)c(F)c(F)c3)[C@@H]2C)c1 [Example 305, [(7S)-2,7-Dimethyl-3-(3,4,5-trifluorophenyl)-5,7-dihydro-4H-pyrazolo[3,4-c]pyridin-6-yl]-(5-isopropoxy-3-pyridyl)methanone]
189 nM	COc1ccc(C(=O)N2CCc3c(nn(C)c3-c3cc(F)c(F)c(F)c3)[C@@H]2C)c(C)n1 [Example 306, [(7S)-2,7-Dimethyl-3-(3,4,5-trifluorophenyl)-5,7-dihydro-4H-pyrazolo[3,4-c]pyridin-6-yl]-(6-methoxy-2-methyl-3-pyridyl)methanone]
181 nM	COc1ccnc(C(=O)N2CCc3c(nn(C)c3-c3cc(F)c(F)c(F)c3)[C@@H]2C)c1C [Example 307, [(7S)-2,7-Dimethyl-3-(3,4,5-trifluorophenyl)-5,7-dihydro-4H-pyrazolo[3,4-c]pyridin-6-yl]-(4-methoxy-3-methyl-2-pyridyl)methanone]
115 nM	COc1cnc(C)c(C(=O)N2CCc3c(nn(C)c3-c3cc(F)c(F)c(F)c3)[C@@H]2C)c1 [Example 308, [(7S)-2,7-Dimethyl-3-(3,4,5-trifluorophenyl)-5,7-dihydro-4H-pyrazolo[3,4-c]pyridin-6-yl]-(5-methoxy-2-methyl-3-pyridyl)methanone]
219 nM	COc1ccnc(C(=O)N2CCc3c(nn(C)c3-c3cc(F)c(F)c(F)c3)[C@@H]2C)c1 [Example 309, [(7S)-2,7-Dimethyl-3-(3,4,5-trifluorophenyl)-5,7-dihydro-4H-pyrazolo[3,4-c]pyridin-6-yl]-(4-methoxy-2-pyridyl)methanone]
96.3 nM	COc1cc(C(=O)N2CCc3c(nn(C)c3-c3cc(F)c(F)c(F)c3)[C@@H]2C)cnc1C [Example 310, [(7S)-2,7-Dimethyl-3-(3,4,5-trifluorophenyl)-5,7-dihydro-4H-pyrazolo[3,4-c]pyridin-6-yl]-(5-methoxy-6-methyl-3-pyridyl)methanone]
87.1 nM	COc1cnccc1C(=O)N1CCc2c(nn(C)c2-c2cc(F)c(F)c(F)c2)[C@@H]1C [Example 311, [(7S)-2,7-Dimethyl-3-(3,4,5-trifluorophenyl)-5,7-dihydro-4H-pyrazolo[3,4-c]pyridin-6-yl]-(3-methoxy-4-pyridyl)methanone]
81.7 nM	COc1cc(C(=O)N2CCc3c(nn(C)c3-c3cc(F)c(F)c(F)c3)[C@@H]2C)ccn1 [Example 312, [(7S)-2,7-Dimethyl-3-(3,4,5-trifluorophenyl)-5,7-dihydro-4H-pyrazolo[3,4-c]pyridin-6-yl]-(2-methoxy-4-pyridyl)methanone]
38 nM	COc1cncc(C(=O)N2CCc3c(nn(C)c3-c3cc(F)c(F)c(F)c3)[C@@H]2C)c1C [Example 313, [(7S)-2,7-Dimethyl-3-(3,4,5-trifluorophenyl)-5,7-dihydro-4H-pyrazolo[3,4-c]pyridin-6-yl]-(5-methoxy-4-methyl-3-pyridyl)methanone]
20.6 nM	COc1nccc(C(=O)N2CCc3c(nn(C)c3-c3cc(F)c(F)c(F)c3)[C@@H]2C)c1C [Example 314, [(7S)-2,7-Dimethyl-3-(3,4,5-trifluorophenyl)-5,7-dihydro-4H-pyrazolo[3,4-c]pyridin-6-yl]-(2-methoxy-3-methyl-4-pyridyl)methanone]
42.4 nM	COc1nccc(C(=O)N2CCc3c(nn(C)c3-c3cc(F)c(F)c(F)c3)[C@@H]2C)c1F [Example 315, [(7S)-2,7-Dimethyl-3-(3,4,5-trifluorophenyl)-5,7-dihydro-4H-pyrazolo[3,4-c]pyridin-6-yl]-(3-fluoro-2-methoxy-4-pyridyl)methanone]
17.2 nM	COc1nccc(C(=O)N2CCc3c(nn(C)c3-c3cc(F)c(F)c(F)c3)[C@@H]2C)c1Cl [Example 316, (3-Chloro-2-methoxy-4-pyridyl)-[(7S)-2,7-dimethyl-3-(3,4,5-trifluorophenyl)-5,7-dihydro-4H-pyrazolo[3,4-c]pyridin-6-yl]methanone]
30.1 nM	COc1ccnc(C(=O)N2CCc3c(nn(C)c3-c3cc(F)c(F)c(F)c3)[C@@H]2C)c1Cl [Example 317, (3-Chloro-4-methoxy-2-pyridyl)-[(7S)-2,7-dimethyl-3-(3,4,5-trifluorophenyl)-5,7-dihydro-4H-pyrazolo[3,4-c]pyridin-6-yl]methanone]
178 nM	C[C@H]1c2nn(C)c(-c3cc(F)c(F)c(F)c3)c2CCN1C(=O)c1cncc(-n2cccn2)c1 [Example 318, [(7S)-2,7-Dimethyl-3-(3,4,5-trifluorophenyl)-5,7-dihydro-4H-pyrazolo[3,4-c]pyridin-6-yl]-(5-pyrazol-1-yl-3-pyridyl)methanone]
255 nM	Cc1ccc(-n2nccn2)c(C(=O)N2CCc3c(nn(C)c3-c3cc(F)c(F)c(F)c3)[C@@H]2C)n1 [Example 319, [(7S)-2,7-Dimethyl-3-(3,4,5-trifluorophenyl)-5,7-dihydro-4H-pyrazolo[3,4-c]pyridin-6-yl]-[6-methyl-3-(triazol-2-yl)-2-pyridyl]methanone]
79 nM	C[C@H]1c2nn(C)c(-c3cc(F)c(F)c(F)c3)c2CCN1C(=O)c1cccc(-n2cccn2)n1 [Example 320, [(7S)-2,7-Dimethyl-3-(3,4,5-trifluorophenyl)-5,7-dihydro-4H-pyrazolo[3,4-c]pyridin-6-yl]-(6-pyrazol-1-yl-2-pyridyl)methanone]
14.8 nM	Cc1nc(C(=O)N2CCc3c(nn(C)c3-c3cc(F)c(F)c(F)c3)[C@@H]2C)nn1-c1ccccc1 [Example 321, [(7S)-2,7-Dimethyl-3-(3,4,5-trifluorophenyl)-5,7-dihydro-4H-pyrazolo[3,4-c]pyridin-6-yl]-(5-methyl-1-phenyl-1,2,4-triazol-3-yl)methanone]
34.6 nM	Cc1nc(C(=O)N2CCc3c(nn(C)c3-c3cc(F)c(F)c(F)c3)[C@@H]2C)nn1-c1ccc(F)cc1 [Example 322, [(7S)-2,7-Dimethyl-3-(3,4,5-trifluorophenyl)-5,7-dihydro-4H-pyrazolo[3,4-c]pyridin-6-yl]-[1-(4-fluorophenyl)-5-methyl-1,2,4-triazol-3-yl]methanone]
